{"source": "patent US7662382B2", "about": "“Inducible ligand for α1β1 integrin and uses” (Boys Town National Research Hospital, priority 2002, dated 2010)", "key": {"[1]": {"tested_on": "primary kidney endothelial cell cultures", "assay": "Binding of Alexa-568-conjugated α1β1 integrin to treated primary kidney endothelial cells", "format": "cell-based, mouse", "experimental": "Primary endothelial cells were isolated from wild type mouse kidneys using anti-CD31 coated metallic beads. Cells were cultured in endothelial cell medium (DMEM/F12, 50 μg/ml Endothelial mitogen, 1% penicillin/streptomycin, 20 mM L-Glutamine, and 1 U/mL heparin prepared fresh not filtered) containing 20% FCS. Thirty-two wells of 5×10^4 cells/well in a 96 well plate coated with 1% gelatin in sterile PBS were set up. Cells were maintained in endothelial cell media with 20% FCS until cells reached confluence. Confluent cells were washed with HBSS, then covered with endothelial cell media without serum at 200 μL/well and kept in a humidified chamber at 37° C., 5% CO2. Twenty-four hours later fresh endothelial cell medium was added without serum and various concentrations of MCP-1 and H2O2 were added at 24 or 48 hours (hrs) prior to conducting the assay for cell binding to α1β1 integrin as shown in the following Table 1."}, "[2]": {"target": "T1, ligand for α1β1 integrin on endothelial cells (Collagen XIII) (Mus musculus, UniProt Q9R1N9)", "T1 construct": "from tissue; host or cells: vascular endothelium of kidneys of living Alport (collagen IV α3 -/-) mice", "T1 sequence (Q9R1N9 whole entry)": "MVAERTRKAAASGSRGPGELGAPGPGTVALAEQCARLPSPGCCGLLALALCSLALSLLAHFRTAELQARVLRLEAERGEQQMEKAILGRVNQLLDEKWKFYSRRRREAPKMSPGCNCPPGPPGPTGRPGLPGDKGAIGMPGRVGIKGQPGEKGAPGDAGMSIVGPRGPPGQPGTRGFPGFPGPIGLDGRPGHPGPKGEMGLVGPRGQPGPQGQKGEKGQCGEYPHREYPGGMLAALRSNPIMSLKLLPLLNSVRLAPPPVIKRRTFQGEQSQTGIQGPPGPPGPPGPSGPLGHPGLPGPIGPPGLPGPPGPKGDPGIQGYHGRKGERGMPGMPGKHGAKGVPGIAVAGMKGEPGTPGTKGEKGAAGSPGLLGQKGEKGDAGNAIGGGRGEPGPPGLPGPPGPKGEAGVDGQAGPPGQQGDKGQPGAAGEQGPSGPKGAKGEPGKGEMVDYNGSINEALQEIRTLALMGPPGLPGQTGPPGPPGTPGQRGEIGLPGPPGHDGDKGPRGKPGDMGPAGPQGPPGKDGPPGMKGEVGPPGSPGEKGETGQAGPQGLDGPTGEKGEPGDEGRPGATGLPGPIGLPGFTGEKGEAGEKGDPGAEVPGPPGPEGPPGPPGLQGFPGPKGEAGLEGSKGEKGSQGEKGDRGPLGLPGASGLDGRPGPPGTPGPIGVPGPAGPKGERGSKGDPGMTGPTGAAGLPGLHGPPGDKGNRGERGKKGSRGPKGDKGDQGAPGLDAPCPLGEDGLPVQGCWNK", "assay": "Monocyte efflux into the interstitium of Alport kidneys after injection of purified α1β1 integrin (Alexa 568 dextran trafficking)", "format": "in vivo", "conditions": "Alport mice, 5 μg purified α1β1 integrin into tail vein daily from one day before labeled dextrans, kidneys three days after dextrans, vs untreated Alport mice", "from_the_text": "Male wild type 129SV and 129SVJ mice (4-12 weeks old) along with collagen IV α3 (−/−) (Alport: 5-8 weeks old) and collagen IV α3 (−/−)/integrin α1 (−/−) double knock out (DKO: 8-12 weeks old) mice were tail vein injected with […] of Alexa 568 labeled dextran reconstituted in 100 microliters (μL) Hanks Balanced Salt Solution (pH 7.2). Three days post injection animals were given a lethal injection of averitin (0.55 grams per kilogram (g/kg) body weight; ip) followed by cardiac perfusion with ice cold PBS. Kidneys were removed and immersed in increasing concentrations of ice cold sucrose (30% max) then embedded in Tissue Tek OCT mounting medium (Sakura Finetek USA, Inc., Torrence, Calif.) and stored at −80° C.\nFresh frozen tissue sections (4 μm) were fixed in 2% paraformaldehyde for 5 minutes and allowed to dry overnight at 4° C. followed by extended storage at −20° C. or immunohistochemical detection of monocytes using rat monoclonal α-CD11b (Cedar Lane laboratories, Hornby, Ontario) and Goat anti rat Alexa 488 (Molecular Probes, Inc. Eugene, Oreg.) antibodies at 1:100 and 1:200 dilutions respectively. Sections were cover slipped with vectorshield mounting medium (Vector Corp. Burlingme, Calif.). […] Green fluorescence alone as well as co-localized dual fluorescence were measured using Image Pro Plus software (Media Cybernetics, Inc. Silver Spring, Md.). […]"}, "[3]": {"assay": "Pilot stability study with Alexa-conjugated integrin α1β1", "conditions": "Alexa-conjugated integrin α1β1, data not shown", "experimental": "In an attempt to provide a more definitive test for the function of α1β1 in monocyte efflux into diseased kidneys, 5 μg of purified α1β1 integrin was injected into the tail vein of Alport mice daily, starting one day before injection of labeled dextrans, and kidneys harvested three days following injection of dextrans. Pilot studies with Alexa-conjugated integrin α1β1 were conducted to assess the stability prior to the blocking experiments. […] If transendothelial migration of monocytes into the interstitial space is mediated, in part, through binding a ligand on endothelial cells, a decrease in labeled monocytes in Alport mice treated with α1β1 integrin compared to untreated age-matched Alport mice should be observed, since the purified integrin should occupy ligand, making less available for binding to monocytes."}, "[4]": {"tested_on": "renal cortical vascular endothelium", "assay": "Binding of Alexa 568-labeled purified α1β1 integrin to kidney vascular endothelium after tail vein injection", "format": "in vivo, mouse", "conditions": "24 hours after tail vein injection", "from_the_text": "If such a direct role exists, there must be a ligand for α1β1 integrin on the renal cortical vascular endothelium of Alport mice that is absent on normal mice. To test for the presence of such a ligand, purified α1β1 integrin (purchased from Chemicon, Temecula, Calif.) was labeled with Alexa 568, and the labeled integrin injected into the tail vein of normal, Alport, and DKO mice. Twenty-four hours following the injection, kidneys were harvested, and cryosections examined. […] Since monocytes phagocytize labeled dextrans, what is interpreted as integrin might be phagocytized integrin in monocytes."}}}
{"compound": "OO", "note": "[hydrogen peroxide, reference compound]", "values": [{"measurement": "binding of Alexa-conjugated α1β1 integrin to cultured primary kidney endothelial cells", "setting": "[1]; cells treated with hydrogen peroxide (24 or 48 hrs), concentration and time-dependent", "result": "promotes the binding"}]}
{"compound": "MCP-1: recombinant monocyte chemo-attractive protein-1, a chemokine", "values": [{"measurement": "adhesion of α1β1 integrin to endothelial cells", "setting": "[1]; cells pre-treated with recombinant MCP-1 (24 or 48 hrs) vs untreated cells, time and dose dependent", "result": "significantly elevated adhesion"}]}
{"compound": "purified α1β1 integrin: purified human α1β1 integrin purchased from Chemicon, Temecula, Calif.; also used labeled with Alexa 568", "values": [{"measurement": "monocyte efflux (Alexa-labeled CD11b-positive monocytes in the interstitium)", "setting": "[2]", "result": "a trend for a reduction in monocyte efflux"}, {"measurement": "stability of the purified integrin", "setting": "[3]", "result": "at least 72 hours"}, {"measurement": "labeling of kidney cryosections by Alexa 568-labeled integrin", "setting": "[4]; Alport mice", "result": "strong labeling in the vascular endothelium"}, {"measurement": "labeling of kidney cryosections by Alexa 568-labeled integrin", "setting": "[4]; normal (control) mice", "result": "absence of label"}]}
